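Test compounds were applied to cells in 96-well plates for 48 hours at 5 doses. TGI denotes the concentration required for complete inhibition of growth.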 Some results are limits rather than exact numbers.

The results in this text go back to PubChem BioAssay (NCI).

Test systems include NCI-H23 lung; SN12C renal; A498 renal; MOLT-4 leukemia; MDA-N; HL-60(TB) leukemia; HOP-92 NSCLC; MALME-3M melanoma; UO-31 renal; A549 NSCLC; SR leukemia.
Holding throughout (assay): inhibition of tumour cell growth, NCI panel, 48 h

For the molecule `CCOS(=O)(=O)c1ccc(-c2c3nc(c(-c4ccc(S(=O)(=O)OCC)cc4)c4ccc([nH]4)c(-c4ccc(S(=O)(=O)OCC)cc4)c4nc(c(-c5ccc(S(=O)(=O)OCC)cc5)c5ccc2[nH]5)C=C4)C=C3)cc1`, the TGI in the experiment on NCI-H23 lung, in the experiment with SN12C renal, in the experiment on A498 renal, with MOLT-4 leukemia, in the experiment on MDA-N and in the experiment with HL-60(TB) leukemia was over 31.6 µM in each case. For the same molecule, the TGI in the experiment on HOP-92 NSCLC was over 100 µM; in the experiment with MALME-3M melanoma it was over 31.6 µM; in the experiment on UO-31 renal, over 31.6 µM; in the experiment on A549 NSCLC it was over 31.6 µM; in the experiment on SR leukemia it was over 31.6 µM.
In the case of `Cc1ccnc(Nc2[nH]c(C(=O)c3ccc(Cl)cc3)c(N)c2C(=S)Nc2ccccc2)c1`, the TGI in the experiment with NCI-H23 lung was found to be 46.5 µM; in the experiment with SN12C renal, 31 µM; in the experiment with A498 renal it was 36.9 µM; with MOLT-4 leukemia, 48.5 µM; in the experiment on MDA-N, 47.9 µM; with HL-60(TB) leukemia, 64.6 µM. Further, the TGI came out at 35.3 µM in the experiment with HOP-92 NSCLC; 29.6 µM with MALME-3M melanoma; 37.2 µM in the experiment with UO-31 renal; 53 µM in the experiment with A549 NSCLC; 39 µM with SR leukemia.
Take `CN1C(=O)C23CCCC2CC1(c1ccccc1)S3` (configuration not stated): the TGI in the experiment with NCI-H23 lung, in the experiment on SN12C renal, in the experiment on A498 renal, with MOLT-4 leukemia, with MDA-N and with HL-60(TB) leukemia was over 100 µM each time. In addition, the TGI in the experiment with HOP-92 NSCLC, with MALME-3M melanoma, with UO-31 renal, in the experiment with A549 NSCLC and in the experiment with SR leukemia was over 100 µM throughout.
With `O=C1CC(c2ccccc2)n2c(nc3ccccc32)N1` (configuration not stated), the TGI with NCI-H23 lung, in the experiment with A498 renal, in the experiment on MOLT-4 leukemia, in the experiment with MDA-N, with HL-60(TB) leukemia and with HOP-92 NSCLC was over 100 µM in each case. For the same molecule, the TGI in the experiment with MALME-3M melanoma, in the experiment with UO-31 renal, with A549 NSCLC and in the experiment on SR leukemia was over 100 µM throughout.
Regarding `COc1ccc2c(c1)/c(=C/C#N)c1c3ccccc3[n+](C)n21`, the TGI in the experiment with NCI-H23 lung is 45.4 µM; with SN12C renal, 47.4 µM; in the experiment with A498 renal, 13.9 µM; in the experiment on MOLT-4 leukemia, over 57.2 µM; in the experiment with MDA-N it was 40.9 µM; in the experiment on HL-60(TB) leukemia it was over 48.3 µM. The TGI in the experiment with HOP-92 NSCLC is 5.89 µM; in the experiment on MALME-3M melanoma it was 14.3 µM; in the experiment with UO-31 renal, 36.9 µM; in the experiment on A549 NSCLC, 16.2 µM; in the experiment on SR leukemia, over 100 µM.
`CSc1ccc2c(c1)c(CCN)c(C)n2Cc1ccccc1Cl`: the TGI is 3.86 µM in the experiment with NCI-H23 lung; 3.06 µM in the experiment with SN12C renal; 3.1 µM with A498 renal; 3.11 µM in the experiment on MDA-N; 3.2 µM in the experiment with HL-60(TB) leukemia; 2.75 µM in the experiment with HOP-92 NSCLC. The TGI in the experiment with MALME-3M melanoma was 3.34 µM; in the experiment on UO-31 renal, 2.96 µM; in the experiment with A549 NSCLC it was 3.18 µM; in the experiment on SR leukemia, over 100 µM.
For the molecule `COc1ccc(N2C(=O)/C(=C/c3ccc(N(CCC#N)CCC#N)cc3)N=C2c2ccccc2)cc1`, the TGI in the experiment with SN12C renal, in the experiment with A498 renal, in the experiment on MOLT-4 leukemia, in the experiment with MDA-N, with HL-60(TB) leukemia and with HOP-92 NSCLC was over 100 µM each time. In addition, the TGI in the experiment with MALME-3M melanoma, in the experiment with UO-31 renal, in the experiment on A549 NSCLC and with SR leukemia was over 100 µM each time.
With `COC(=O)C12Oc3ccc(-c4ccc5c(c4O)C(O)=C4C(=O)CC(C)C(O)C4(C(=O)OC)O5)c(O)c3C(O)=C1C(=O)CC(C)C2O` (configuration not stated), the TGI with SN12C renal is over 100 µM; in the experiment with A498 renal it was 1.81 µM; with MOLT-4 leukemia, 2.9 µM; in the experiment with MDA-N, over 100 µM; with HL-60(TB) leukemia it was 0.319 µM; in the experiment on HOP-92 NSCLC it was over 22.7 µM. Further, the values for the TGI in the experiment with UO-31 renal, with A549 NSCLC and with SR leukemia were 0.858 µM, over 100 µM and 0.224 µM, respectively.
As to `O=C1Nc2ccc(Br)cc2/C1=N/N1C(=O)C(=O)N(C2CCCCC2)C1=S`, the TGI was 20.3 µM in the experiment with NCI-H23 lung; 16 µM in the experiment with SN12C renal; 13.9 µM in the experiment on A498 renal; 16.5 µM with MOLT-4 leukemia; 7.56 µM in the experiment on MDA-N; 7.23 µM in the experiment with HL-60(TB) leukemia. For the same molecule, the TGI in the experiment on HOP-92 NSCLC worked out at 53.7 µM; with MALME-3M melanoma, 22.3 µM; in the experiment with UO-31 renal it was 4.79 µM; in the experiment on A549 NSCLC it was 19.2 µM; with SR leukemia it was 10.6 µM.
As to `Cn1cc2c3ccccc3nc-2c2ccccc21`, the TGI in the experiment with NCI-H23 lung was 3.15 µM; with SN12C renal, 4.89 µM; with A498 renal, 3.27 µM; with MOLT-4 leukemia, 2.74 µM; with MDA-N it was 5.95 µM; in the experiment with HL-60(TB) leukemia, 4.48 µM. In addition, the TGI with HOP-92 NSCLC worked out at 4.3 µM; in the experiment with MALME-3M melanoma, 5.78 µM; in the experiment with UO-31 renal, 2.92 µM; in the experiment with A549 NSCLC, 5.65 µM; in the experiment on SR leukemia, 2.1 µM.
Turning to `C/C(=N\NC(N)=S)c1nc2ncccc2[nH]1`, the TGI with SN12C renal is over 100 µM; in the experiment on A498 renal, over 100 µM; with MOLT-4 leukemia, over 100 µM; in the experiment with MDA-N, over 100 µM; in the experiment with HL-60(TB) leukemia, over 79.1 µM; in the experiment on HOP-92 NSCLC, over 100 µM. For the same molecule, the TGI in the experiment with MALME-3M melanoma is over 100 µM; in the experiment on UO-31 renal it was 82.1 µM; with A549 NSCLC it was over 100 µM; in the experiment on SR leukemia it was over 100 µM.
Consider `CN(C)CC1CCC/C(=C\c2ccc(OC(=O)/C=C/c3ccc(Cl)cc3)cc2)C1=O` (configuration not stated), for which the TGI with NCI-H23 lung turned out to be 14.1 µM; with SN12C renal it was 12.8 µM; with A498 renal, 16.3 µM; in the experiment with MOLT-4 leukemia, 2.86 µM; in the experiment with MDA-N, 18.6 µM; in the experiment on HL-60(TB) leukemia it was 3.22 µM. Besides, the TGI was 4.34 µM in the experiment with HOP-92 NSCLC; 16.3 µM in the experiment with MALME-3M melanoma; 12.8 µM in the experiment with UO-31 renal; 21.6 µM in the experiment on A549 NSCLC; 2.87 µM in the experiment with SR leukemia.
Regarding `Cc1cc(O)c2c(c1)C(C1c3cccc(O)c3C(=O)c3c(O)cc(C)cc31)c1cccc(O)c1C2=O` (configuration not stated), the TGI in the experiment on NCI-H23 lung is 4.65 µM; in the experiment on SN12C renal, 3.23 µM; in the experiment on A498 renal, 4.53 µM; with MOLT-4 leukemia, 12.5 µM; in the experiment on MDA-N, 20.8 µM; with HL-60(TB) leukemia, 6.72 µM. Also, the TGI is 0.706 µM in the experiment with HOP-92 NSCLC; 1.25 µM in the experiment on MALME-3M melanoma; 1.78 µM in the experiment with UO-31 renal; 0.97 µM with A549 NSCLC; 3.32 µM with SR leukemia.
